Measurements taken from patent US20190307692A1, “NANOLIPOPROTEIN PARTICLES AND RELATED COMPOSITIONS METHODS AND SYSTEMS FOR IMPROVED DRUG LOADING” (Lawrence Livermore National Security, LLC, priority 2016, published 2019).
Structures can show the parent of a compound that is named as a salt. Values belong to the molecule of their own block, whether it stands above or below them.

Columns and labels:
[1] = Drug (paclitaxel) loading into NLPs, quantified by reverse phase HPLC after SEC purification; assay type: physicochemical; settings: for amount of paclitaxel loaded into NLPs (mass of drug over total mass of particle components): NLPs prepared with the named lysophospholipid at 50 mol % content
Protocol: For NLP assemblies using DOPC as the membrane forming lipid with apoE422k, the total lipid-to-apoE422K molar ratio was 80:1. Briefly, lipids were either prepared or obtained in chloroform and aliquoted into glass vials. Chloroform was then removed using a stream of N2 under agitation to form a thin lipid film. Lipids were solubilized in PBS buffer (137 mM sodium chloride, 2.7 mM potassium chloride, 10 mM phosphate buffer, pH 7.4) using 30 mM sodium cholate. After addition of the apoE422k (150 μM in final assembly volume), samples were incubated at 23.8° C. for at least 2 hours.
Assemblies were dialyzed overnight against PBS to remove cholate. Samples were subsequently analyzed and purified by SEC (size exclusion chromatography) (Superdex 200, 10/300 GL column, GE Healthcare, Piscataway, N.J.) in PBS buffer (0.5 mL/min flow rate). The exclusion limit of the column was determined with Blue Dextran 2000. SEC fractions (500 μl) were collected every 60 s. SEC fractions containing homogeneous NLP populations were concentrated using 50 kDa MWCO spin concentrators (Sartorius). The apoE422k concentration was determined using NanoDrop (Thermo Scientific). The concentrated NLP samples were then stored at 4° C. until further use.
The solution was then spun down to remove any precipitate, and then the supernatant was purified by SEC (GE HiTrap desalting column) in PBS buffer (0.5 ml/min flow rate). The collected fractions containing NLP were then analyzed by reverse phase HPLC to quantify each component of the NLP.
The ability of the two NLP populations to accommodate the drug of interest, paclitaxel, was then assessed. Following addition of paclitaxel to the two solutions, the NLP solutions were re-purified to remove free paclitaxel. The solutions were then analyzed by reverse phase HPLC to assess the amount of paclitaxel that was incorporated into the particles.
Further experiments were carried out to assess the relationship between lysophospholipid content and paclitaxel loading. NLPs were prepared with initial lysophospholipid contents (lyso 14:0) between 0 and 70 mole percent (i.e. 0 mol %-70 mol %). After paclitaxel addition and subsequent purification, the composition of these particles was again analyzed using reverse phase HPLC.

[2] = pH 5, 7 or 9; cited from earlier work
[3] = compared with lyso 14:0, 16:0 and 18:0; cited from earlier work

incorporation in NLPs ([1]; regardless of whether a lysophospholipid is used as part of the drug loading process): does not incorporate to a useful degree
SMILES: COc1cccc2c1C(=O)c1c(O)c3c(c(O)c1C2=O)C[C@@](O)(C(=O)CO)C[C@@H]3O[C@H]1C[C@H](N)[C@H](O)[C@H](C)O1 [doxorubicin hydrochloride]
LogKow [2]: 3.5

SMILES: CCCCCCCCCCCCCC(=O)OC[C@@H](O)COP(=O)([O-])OCC[N+](C)(C)C [lyso 14:0, 1-tetradecanoyl-sn-glycero-3-phosphocholine]
amount of paclitaxel loaded into NLPs (mass of drug over total mass of particle components) [1]: over 20%

SMILES: CCCCCCCC/C=C\CCCCCCCC(=O)OC[C@@H](O)COP(=O)([O-])OCC[N+](C)(C)C [lyso 18:1, 1-(9Z-octadecenoyl)-sn-glycero-3-phosphocholine]
amount of paclitaxel loaded into NLPs (mass of drug over total mass of particle components) [1]: least amount
aqueous solubility / CMC (in words) [3]: lowest solubility

paclitaxel content in NLPs (mass of drug over total mass of particle components) ([1]; 10-20 mol % initial lysophospholipid (lyso 14:0)): approximately 5 % by mass
paclitaxel loading in NLPs (mass of drug over total mass of particle components) ([1]; 30-60 mol % initial lysophospholipid (lyso 14:0)): 10-20%
measured quantity of paclitaxel in NLPs ([1]; 30 mol % lysophospholipid group): about 0.23 micrograms
paclitaxel loading in NLPs (mass of drug over total mass of particle components) ([1]; 70 mol % initial lysophospholipid (lyso 14:0)): > 30 % by mass
measured quantity of paclitaxel in NLPs ([1]; 70 mol % lysophospholipid group): about 0.23 micrograms
paclitaxel accepted by NLPs from second SEC peak versus larger particles from peak 1 ([1]; NLPs with 40 mol % initial lysophospholipid (lyso 14:0), two SEC populations): substantially more
paclitaxel content in NLPs (mass of drug over total mass of particle components) ([1]; NLPs without lysophospholipids (0 mol % lyso 14:0), DOPC/apoE422k): 1-2 % by mass of the particle
SMILES: CC(=O)O[C@H]1C(=O)[C@@]2(C)[C@H]([C@H](OC(=O)c3ccccc3)[C@]3(O)C[C@H](OC(=O)[C@H](O)[C@@H](NC(=O)c4ccccc4)c4ccccc4)C(C)=C1C3(C)C)[C@]1(OC(C)=O)CO[C@@H]1C[C@@H]2O [paclitaxel]
incorporation into NLP ([1]; when aided by lysophospholipid): capable of being incorporated into NLP to a useful mass percent
